pIC50: −log10 of the molar value.
Tests used:
[1] = target: BRD3 (Homo sapiens (Human), UniProt Q15059); experiment: TR-FRET in-vitro binding assay for BRD3; settings: 45 nM His-Brd3(20-477), acetyl-histone H4 (AcK 5, 8, 12, 16) peptide
Method: (§1) TR-FRET In-Vitro Binding Assays for BRD2, BRD3, and BRD4: All assays were performed in 384-well microtiter plates. […] Liquid handling and incubation steps were done on an Innovadyne Nanodrop Express equipped with a robotic arm (Thermo CatX, Perkin Elmer/Caliper Twister II) and an incubator (Liconic STX40, Thermo Cytomat 2C450). The assay plates were prepared by addition of 50 nl per well of compound solution in 90% DMSO HummingBird nanodispenser (Zinsser Analytic). […] Reactions were incubated at 30° C. for 35 minutes. […] After 35 minutes incubation at 30° C., plates were measured in a Perkin Elmer EnVision multilabel reader. […] The stock solutions were stored at […] if not used immediately. For the test procedure the vials were defrosted and identified by a scanner whereby a working sheet was generated that guided the subsequent working steps. Compound dilutions were made in 96 well plates. This format enabled the assay of maximally […] at 8 concentrations (single points) including 4 reference compounds, if desired (known BET inhibitors from the prior art, for this and other assays of the type disclosed herein). The dilution protocol included the production of “pre-dilution plates”, “master plates” and “assay plates”. Polypropylene 96-well plates were used as pre-dilution plates. […] All dilution steps were done on a HamiltonSTAR robot. […] Identical “assay plates” were then prepared by pipetting 50 nL each of compound dilutions of the “master plates” into 384-well “assay plates” by means of a HummingBird 384-channel dispenser. These plates were used directly for the assay which was performed in a total volume of 13.55 μL.

[2] = tested on: MV-4-11; experiment: Cell growth inhibition assay (CellTiter-Glo), MV-4-11; type: cell-based, human; settings: MV-4-11 cells, 4 days; for GI50: Homo sapiens, MV4-11, 96 h, half-maximal growth inhibition; for MV-4-11 TGI: total growth inhibition
Method: (§2) Cell Growth Inhibition Assay
(§3) The human leukemia cell lines MV-4-11, THP-1 and K-562 were employed to characterize the effect of BET inhibitors on cellular proliferation and viability. Cells were obtained from the American Type Culture Collection (ATCC) and cultured at 37° C. in a humidified 5% CO2 incubator in the following media: MV-4-11: DMEM high glucose (Animed #1-26F01-I), 10% FCS (Animed #2-01F26-I), 4 mM L-Glutamine (Animed #5-10K50), 1 mM Sodium Pyruvate (Animed # G03625P), 1× Penicillin-Streptomycin (Animed # F12478P); K-562: Iscove's MEM (Animed #1-28F16-I), 10% FCS (Animed #2-01F26-I), 4 mM L-Glutamine (Animed #5-10K50), 1× Penicillin-Streptomycin (Animed # F12478P); THP-1: RPMI-1640 (Animed #1-41F01-I), 10% FCS (Animed #2-01F26-I), 2 mM L-Glutamine (Animed #5-10K50), 10 mM HEPES (Animed #5-31F100), 1 mM Sodium Pyruvate (Animed # G03625P), 1× Penicillin-Streptomycin (Animed # F12478P). The AML lines MV-4-11 and THP-1 are very sensitive to BET inhibitors and show massive cell death upon BET inhibition (Zuber et al., Nature, 478 (2011), 524-8). Compound-mediated suppression of cell proliferation/viability was assessed by quantification of cellular ATP levels using the CellTiter-Glo (CTG) reagent (Promega). Briefly, cells were seeded in 20 μl fresh medium into 384-well plates, followed by addition of 5 μL medium containing compound dilutions at 5-fold their final intended concentration. Dose-response effects were assessed by 3-fold serial dilutions of the test compound, starting at 10 μM. Following incubation of the cells for 4 days at 37° C. and 5% CO2, the effect of inhibitors on cell viability was quantified following addition of 20 μl CTG and luminescence quantification (integration time: 100 ms) as per vendor manual, using a correspondingly equipped Tecan M200 multi-mode platereader (TECAN, Switzerland). For data analysis, the assay background value determined in wells containing medium, but no cells, was subtracted from all data points. To enable differentiation of cytotoxic from cytostatic compounds, the number of viable cells is assessed relative to that observed at the time of compound addition using a separate cell plate (day 0). The effect of a particular test compound concentration on cell proliferation/viability is expressed as percentage of the background- and day 0-corrected luminescence reading obtained for cells treated with vehicle only (DMSO, 0.1% final concentration), which is set as 100%, whereas that luminescence reading for wells containing medium is set as −100%. Compound concentrations leading to half-maximal (IC50) and total growth inhibition (TGI) were determined using standard four parameter curve fitting.

[3] = tested on: K-562; experiment: Cell growth inhibition assay (CellTiter-Glo), K-562; type: cell-based, human; settings: K-562 cells, 4 days; for GI50: Homo sapiens, K562, 96 h, half-maximal growth inhibition; for K-562 TGI: total growth inhibition
Method: as §2, §3

[4] = tested on: THP-1; experiment: Cell growth inhibition assay (CellTiter-Glo), THP-1; type: cell-based, human; settings: THP-1 cells, 4 days; for GI50: Homo sapiens, 96 h, half-maximal growth inhibition; for THP-1 TGI: total growth inhibition
Method: as §2, §3

[5] = target: CREBBP (Homo sapiens (Human), UniProt Q92793); experiment: AlphaScreen in-vitro binding assay for CREBBP; settings: 324 nM His-CREBBP (1081-1197), acetyl-histone H4 (AcK 5, 8, 12) peptide
Sequence of CREBBP (Q92793 1081-1197): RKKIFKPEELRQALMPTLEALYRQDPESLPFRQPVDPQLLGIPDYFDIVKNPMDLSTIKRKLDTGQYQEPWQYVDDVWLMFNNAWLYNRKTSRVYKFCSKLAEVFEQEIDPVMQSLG
Method: AlphaScreen In-Vitro Binding Assay for CREBBP
In order to assess bromodomain selectivity, we set up a binding assay using the bromodomain encoded by the CREBBP gene. […] The assay was started by stepwise addition of 4.5 μL per well of bromo domain protein (50 mM HEPES, pH 7.5, 0.005% Tween20, 0.02% BSA, 150 mM NaCl, 324 nM His-CREBBP (1081-1197) (custom production at Viva Biotech Ltd.)) and 4.5 μL per well of peptide solution (50 mM HEPES, pH 7.5, 0.005% Tween20, 0.02% BSA, 150 mM NaCl, 120 nM acetyl-histone H4 (AcK 5, 8, 12) (Biosyntan GmbH)). Reactions were incubated at 30° C. for 35 minutes. Subsequently 4.5 μL per well detection mix (50 mM HEPES, pH 7.5, 0.005% Tween20, 0.02% BSA, 150 mM NaCl, 45 μg/ml Ni-chelate acceptor beads, 45 μg/mL streptavidin-donor beads) (Perkin Elmer)) were added. After 60 minutes incubation at room temperature, plates were measured in a Perkin Elmer EnVision multilabel reader. IC50 values were determined from percent inhibition values at different compound concentrations by non-linear regression analysis.
Test compounds were dissolved in DMSO (10 mM) and transferred into 1.4 mL flat bottom or V-shaped Matrix tubes carrying a unique 2D matrix. The stock solutions were stored at […] if not used immediately. For the test procedure the vials were defrosted and identified by a scanner whereby a working sheet was generated that guided the subsequent working steps. Compound dilutions were made in 96 well plates. This format enabled the assay of maximally […] at 8 concentrations (single points) including 4 reference compounds, if desired (known BET inhibitors from the prior art, for this and other assays of the type disclosed herein). The dilution protocol included the production of “pre-dilution plates”, “master plates” and “assay plates”.
Polypropylene 96-well plates were used as pre-dilution plates. A total of 4 pre-dilution plates were prepared including 10 test compounds each on the plate positions A1-A10, one standard compound at A11 and one DMSO control at […]. All dilution steps were done on a HamiltonSTAR robot.
30 μL of individual compound dilutions including standard compound and controls of the 4 “pre-dilution plates” were transferred into a 384-well “master plate” including the following concentrations 10000, […], 1000, 300, 100, 30, 10 and 3 μM, respectively in 90% of DMSO.
Identical “assay plates” were then prepared by pipetting 50 nL each of compound dilutions of the “master plates” into 384-well “assay plates” by means of a HummingBird 384-channel dispenser. These plates were used directly for the assay which was performed in a total volume of 13.55 μL.

[6] = target: BRD4 (Homo sapiens (Human), UniProt O60885); experiment: TR-FRET in-vitro binding assay for BRD4; settings: 45 nM His-Brd4(44-477), acetyl-histone H4 (AcK 5, 8, 12, 16) peptide
Method: as §1

Sequence of BRD3 (Q15059 20-477): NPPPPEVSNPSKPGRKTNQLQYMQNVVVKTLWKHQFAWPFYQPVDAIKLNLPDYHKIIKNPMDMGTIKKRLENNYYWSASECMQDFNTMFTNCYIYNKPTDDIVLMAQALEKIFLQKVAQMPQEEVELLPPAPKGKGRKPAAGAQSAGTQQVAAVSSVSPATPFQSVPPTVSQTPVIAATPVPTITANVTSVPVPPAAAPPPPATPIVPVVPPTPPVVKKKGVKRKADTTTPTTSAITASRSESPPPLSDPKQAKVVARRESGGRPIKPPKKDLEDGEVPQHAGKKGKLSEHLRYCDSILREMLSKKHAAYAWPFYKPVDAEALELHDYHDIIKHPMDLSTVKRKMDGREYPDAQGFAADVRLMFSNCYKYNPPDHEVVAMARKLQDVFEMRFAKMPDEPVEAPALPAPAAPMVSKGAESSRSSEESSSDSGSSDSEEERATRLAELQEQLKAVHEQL

Structure (SMILES)	pIC50 [1]	GI50 [2]	GI50 [3]	GI50 [4]	pIC50 [5]	pIC50 [6]	MV-4-11 TGI [2]	K-562 TGI [3]	THP-1 TGI [4]
CNC(=O)Nc1cn(C)c2c1C(=O)N(c1cc(C)c3nnn(C)c3c1)C2c1ccc(Cl)cc1 (stereo not drawn) [Example 114, 1-(6-(4-chlorophenyl)-5-(1,4-dimethyl-1H-benzo[d][1,2,3]triazol-6-yl)-1-methyl-4-oxo-1,4,5,6-tetrahydropyrrolo[3,4-b]pyrrol-3-yl)-3-methylurea]	7.42	26.8 nM	499 nM	27.1 nM	5.89	7.47	66 nM	>10000 nM	105.2 nM
Cc1cc(N2C(=O)c3c(NC(=O)CCN(C)C)cn(C)c3C2c2ccc(Cl)cc2)cc2c1nnn2C (stereo not drawn) [Example 115, N-(6-(4-chlorophenyl)-5-(1,4-dimethyl-1H-benzo[d][1,2,3]triazol-6-yl)-1-methyl-4-oxo-1,4,5,6-tetrahydropyrrolo[3,4-b]pyrrol-3-yl)-3-(dimethylamino)propanamide]	7.44	16.1 nM	157 nM	29.3 nM	5.41	7.59	25.7 nM	>10000 nM	79 nM
Cc1cc(N2C(=O)c3c(NC(=O)CN(C)C)cn(C)c3C2c2ccc(Cl)cc2)cn2c(C)nnc12 (stereo not drawn) [Example 116, N-(6-(4-chlorophenyl)-5-(3,8-dimethyl-[1,2,4]triazolo[4,3-a]pyridin-6-yl)-1-methyl-4-oxo-1,4,5,6-tetrahydropyrrolo[3,4-b]pyrrol-3-yl)-2-(dimethylamino)acetamide]	7.47	37.8 nM	288 nM	59.5 nM	5.38	7.59	87.45 nM	>10000 nM	123 nM
Cc1cc(N2C(=O)c3c(C4CN(C)C4)cn(C)c3C2c2ccc(Cl)cc2)cn2c(C)nnc12 (stereo not drawn) [Example 118, 6-(4-chlorophenyl)-5-(3,8-dimethyl-[1,2,4]triazolo[4,3-a]pyridin-6-yl)-1-methyl-3-(1-methylazetidin-3-yl)-5,6-dihydropyrrolo[3,4-b]pyrrol-4(1H)-one]	7.66	374 nM	3830 nM	956 nM	4.49	7.68	591.5 nM	>10000 nM	1810 nM

Compounds with a higher pIC50 [1], results first:

pIC50 [1]	GI50 [2]	GI50 [3]	GI50 [4]	pIC50 [5]	pIC50 [6]	Structure (SMILES)	MV-4-11 TGI [2]	K-562 TGI [3]	THP-1 TGI [4]
7.82	13.6 nM	72 nM	12.9 nM	5.80	7.89	CC(=O)Nc1cn(C)c2c1C(=O)N(c1cc(C)c3nnn(C)c3c1)C2c1ccc(Cl)cc1 (stereo not drawn) [Example 113, N-(6-(4-chlorophenyl)-5-(1,4-dimethyl-1H-benzo[d][1,2,3]triazol-6-yl)-1-methyl-4-oxo-1,4,5,6-tetrahydropyrrolo[3,4-b]pyrrol-3-yl)acetamide]	27.25 nM	>10000 nM	30.35 nM
7.77	124 nM	1490 nM	184 nM	4.86	7.85	CC(=O)N1CC(c2cn(C)c3c2C(=O)N(c2cc(C)c4nnc(C)n4c2)C3c2ccc(Cl)cc2)C1 (stereo not drawn) [Example 117, 3-(1-acetylazetidin-3-yl)-6-(4-chlorophenyl)-5-(3,8-dimethyl-[1,2,4]triazolo[4,3-a]pyridin-6-yl)-1-methyl-5,6-dihydropyrrolo[3,4-b]pyrrol-4(1H)-one]	217.5 nM	>10000 nM	354 nM
> 7.96	1.24 nM	11.7 nM	1.57 nM	5.77	> 7.96	Cc1cc(N2C(=O)c3c(C4CC4)c(C4=CCOCC4)n(C)c3C2c2ccc(Cl)cc2)cn2c(C)nnc12 (stereo not drawn) [Example 119, 6-(4-chlorophenyl)-3-cyclopropyl-2-(3,6-dihydro-2H-pyran-4-yl)-5-(3,8-dimethyl-[1,2,4]triazolo[4,3-a]pyridin-6-yl)-1-methyl-5,6-dihydropyrrolo[3,4-b]pyrrol-4(1H)-one]	3.76 nM	3740 nM	3.665 nM
